Reference: patent US20250221966A1, “RXFP1 AGONISTS” (BRISTOL-MYERS SQUIBB COMPANY, priority 2021, published 2025)

Target: T1, human RXFP1 (Homo sapiens, UniProt Q9HBX9)
T1 construct: expressed in transfected cells
T1 sequence (Q9HBX9 1-757): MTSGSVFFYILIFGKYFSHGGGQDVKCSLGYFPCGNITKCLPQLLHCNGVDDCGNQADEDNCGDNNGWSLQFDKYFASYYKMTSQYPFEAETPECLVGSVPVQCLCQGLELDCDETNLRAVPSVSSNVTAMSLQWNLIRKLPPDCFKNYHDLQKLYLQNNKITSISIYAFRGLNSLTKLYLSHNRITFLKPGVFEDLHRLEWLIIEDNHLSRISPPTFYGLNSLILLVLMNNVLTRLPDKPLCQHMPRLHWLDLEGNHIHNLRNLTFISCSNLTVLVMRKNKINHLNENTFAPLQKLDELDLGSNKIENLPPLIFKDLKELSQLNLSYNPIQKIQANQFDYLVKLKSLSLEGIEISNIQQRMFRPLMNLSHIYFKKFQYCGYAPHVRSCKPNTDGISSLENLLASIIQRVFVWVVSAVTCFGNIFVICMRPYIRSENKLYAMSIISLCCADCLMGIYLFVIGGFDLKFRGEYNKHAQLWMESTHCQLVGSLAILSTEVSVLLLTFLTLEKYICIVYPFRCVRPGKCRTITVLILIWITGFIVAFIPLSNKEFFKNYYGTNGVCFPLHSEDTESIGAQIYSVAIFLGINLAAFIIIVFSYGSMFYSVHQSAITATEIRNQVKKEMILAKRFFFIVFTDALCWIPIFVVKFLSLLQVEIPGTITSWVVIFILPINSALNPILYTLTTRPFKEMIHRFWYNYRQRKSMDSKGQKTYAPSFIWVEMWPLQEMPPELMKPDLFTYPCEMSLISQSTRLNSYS
Assay: RXFP1 cAMP assay (hRXFP1 HEK293 cAMP assay, HTRF)
Assay type: cell-based
Conditions: HEK293 cells stably expressing human RXFP1, 30 min at room temperature, read-out: cAMP hRXFP1 HEK293 Assay EC50
Experimental: RXFP1 Cyclic Adenosine Monophosphate (cAMP) Assays. […] Cells were dissociated and suspended in assay buffer. The assay buffer was HBSS buffer (with calcium and magnesium) containing 20 mM HEPES, 0.05% BSA, and 0.5 mM IBMX. Cells (3000 cells per well, except 1500 cell per well for HEK293 cells stably expressing human RXFP1) were added to 384-well Proxiplates (Perkin-Elmer). Cells were immediately treated with test compounds in DMSO (2% final) at final concentrations in the range of 0.010 nM to 50 μM. Cells were incubated for 30 min at room temperature. The level of intracellular cAMP was determined using the HTRF HiRange cAMP assay reagent kit (Cisbio) according to manufacturer's instructions. Solutions of cryptate conjugated anti-cAMP and d2 fluorophore-labelled cAMP were made in a supplied lysis buffer separately. Upon completion of the reaction, the cells were lysed with equal volume of the d2-cAMP solution and anti-cAMP solution. […] The potency and activity of a compound to […] cAMP production was then determined by fitting to a 4-parametric logistic equation from a plot of cAMP level versus compound concentrations.

SMILES | EC50
COc1ccc(C2=NOC3COCC23)cc1C(=O)N[C@H]1[C@@H](C(=O)NC2(C(C)C)CC2)[C@H]2CC[C@@H]1/C2=C\C1CC1 (some centres unmarked) [compound 584] | 77.3 nM
COc1cc(F)c(F)cc1C(=O)N[C@@H]1C2CCC(/C2=C/c2ccccc2)[C@]1(F)C(=O)Nc1ccc(F)c(C(F)(F)F)c1 (some centres unmarked) [Example 53] | 240 nM
COC(=O)c1c[nH]c2cc(-c3ccc(OC)c(C(=O)N[C@@H]4C5CCC(/C5=C/C(F)(F)F)[C@@H]4C(=O)Nc4ccc(F)c(C(F)(F)F)c4)c3)ccc12 (some centres unmarked) [compound 296] | 205 nM
COc1ccc(C2=NOC3CC(CO)CC23)cc1C(=O)N[C@H]1[C@@H](C(=O)Nc2ccc(F)c(C(F)(F)F)c2)[C@H]2CC[C@@H]1/C2=C\C(F)(F)F (some centres unmarked) [compound 478] | 6.5 nM
COc1ccc(C2=NOC3COCC23)cc1C(=O)N[C@H]1[C@@H](C(=O)N[C@@H](C)C(C)(C)C)[C@H]2CC[C@@H]1/C2=C\C1CC1 (some centres unmarked) [compound 541] | 30 nM
COc1ccc(-c2cc([C@H](OC(=O)NC3CCC3)C(F)(F)F)ccc2F)cc1C(=O)N[C@H]1[C@@H](C(=O)N[C@H](C)C2(C)CC2)[C@H]2CC[C@@H]1/C2=C\CCC(F)(F)F [compound 966] | 6.9 nM
COc1ccc(-c2cc(C(N)=O)ccc2F)cc1C(=O)N[C@@H]1C2CCC(C2=C(C)C)[C@@H]1C(=O)Nc1ccc(F)c(C(F)(F)F)c1 (some centres unmarked) [Example 121] | 16 nM
COc1ccc(-c2nn[nH]n2)cc1C(=O)N[C@@H]1C2CCC(C2=C(C)C)[C@@H]1C(=O)Nc1ccc(F)c(C(F)(F)F)c1 (some centres unmarked) [Example 144] | 2100 nM
COc1ccc(C2=NO[C@H]3CC(CO)C[C@@H]23)cc1C(=O)N[C@H]1[C@@H](C(=O)Nc2ccc(F)c(C(F)(F)F)c2)[C@H]2CC[C@@H]1/C2=C\CCC(F)(F)F (some centres unmarked) [compound 825] | 2.9 nM
COc1ccc(C#N)cc1C(=O)N[C@H]1[C@@H](C(=O)Nc2ccc(F)c(C(F)(F)F)c2)[C@H]2CC[C@@H]1C2=C(C)C [compound 99] | 540 nM
COc1c(F)cc(C2=NOC3CC(CO)CC23)cc1C(=O)N[C@H]1[C@@H](C(=O)N[C@H](C)C2(C)CC2)[C@H]2CC[C@@H]1/C2=C\CCC(F)(F)F (some centres unmarked) [compound 834] | 3.8 nM
COc1c(F)cc(C2=NOC3CC(CO)CC23)cc1C(=O)N[C@H]1[C@@H](C(=O)N[C@H](C)C2(C)CC(F)(F)C2)[C@H]2CC[C@@H]1/C2=C\C1CC1 (some centres unmarked) [compound 870] | 2.2 nM
COc1cc(F)c(F)cc1C(=O)N[C@@H]1C2CCC(/C2=C/C(=O)Nc2ccccc2)[C@@H]1C(=O)Nc1ccc(F)c(C(F)(F)F)c1 (some centres unmarked) [Example 34] | 4600 nM
COc1ccc(-c2cnc(C)nc2)cc1C(=O)N[C@H]1[C@@H](C(=O)Nc2ccc(F)c(C(F)(F)F)c2)[C@H]2CC[C@@H]1C2=C(C)C [compound 98] | 510 nM
COc1ccc(-c2cc([C@H](OC(=O)NC3CCC3)C(F)(F)F)ccc2F)cc1C(=O)N[C@@H]1C2CCC(/C2=C/CC(C)C)[C@@H]1C(=O)Nc1ccc(F)c(C(F)(F)F)c1 (some centres unmarked) [compound 926] | 2.8 nM
COc1ccc(C2=NOC3COCC23)cc1C(=O)N[C@H]1[C@@H](C(=O)NC23CC(C#N)(C2)C3)[C@H]2CC[C@@H]1/C2=C\C1CC1 (some centres unmarked) [compound 777] | 13.9 nM
COc1c(F)cc(C2=NOC3CC(CO)CC23)cc1C(=O)N[C@H]1[C@@H](C(=O)Nc2ccc(F)c(C(F)(F)F)c2)[C@H]2CC[C@@H]1/C2=C\C1CC(F)(F)C1 (some centres unmarked) [compound 918] | 5.5 nM
COc1ccc(C2=NOC3CC(O)(C(F)(F)F)CC23)cc1C(=O)N[C@H]1[C@@H](C(=O)NCC(C)(C)C)[C@H]2CC[C@@H]1/C2=C\C1CC1 (some centres unmarked) [compound 862] | 3.4 nM
COc1ccc(C2=NOC3COCC23)cc1C(=O)N[C@H]1[C@@H](C(=O)NCc2ccnn2C)[C@H]2CC[C@@H]1/C2=C\C1CC1 (some centres unmarked) [compound 707] | 1330 nM
COc1ccc(-c2cccnc2F)cc1C(=O)N[C@H]1[C@@H](C(=O)Nc2ccc(F)c(C(F)(F)F)c2)[C@H]2CC[C@@H]1C2=C(C)C [compound 102] | 590 nM

The remaining lines, values ahead:

EC50 | SMILES
7.4 nM | COc1ccc(C2=NO[C@@H]3CC[C@H](O)[C@H]23)cc1C(=O)N[C@H]1[C@@H](C(=O)Nc2ccc(F)c(C(F)(F)F)c2)[C@H]2CC[C@@H]1/C2=C\C1CC1 (single isomer, unassigned) [compound 484]
91.4 nM | COc1ccc(-c2cc(C(=O)N3CCC(O)CC3)on2)cc1C(=O)N[C@H]1[C@@H](C(=O)Nc2ccc(F)c(C(F)(F)F)c2)[C@H]2CC[C@@H]1/C2=C\C1CC1 [Example 594]
22.7 nM | COc1ccc(C2=NOC3CC(C(O)C(F)(F)F)CC23)cc1C(=O)N[C@H]1[C@@H](C(=O)Nc2ccc(F)c(C(F)(F)F)c2)[C@H]2CC[C@@H]1/C2=C\C1CC1 (single isomer, unassigned) [Example 530]
0.2 nM | COc1ccc(-c2cccc3c2ccn3CC(C)(C)O)cc1C(=O)N[C@@H]1C2CCC(/C2=C/C2CCCC2)[C@@H]1C(=O)Nc1ccc(F)c(C(F)(F)F)c1 (some centres unmarked) [compound 895]
4.9 nM | O=C(N[C@H]1[C@@H](C(=O)Nc2ccc(F)c(C(F)(F)F)c2)[C@H]2CC[C@@H]1/C2=C\C1CC1)c1cc(C2=NOC3CC(CO)CC23)ccc1F (single isomer, unassigned) [compound 473]
4.1 nM | COc1c(C)cc(C2=NOC3CC(CO)CC23)cc1C(=O)N[C@H]1[C@@H](C(=O)Nc2ccc(F)c(C(F)(F)F)c2)[C@H]2CC[C@@H]1/C2=C\C1CC1 (some centres unmarked) [compound 797]
6 nM | COc1ccc(-c2cc(C(O)C(=O)O)ccc2F)cc1C(=O)N[C@@H]1C2CCC(/C2=C/C2CC2)[C@@H]1C(=O)Nc1ccc(F)c(C(F)(F)F)c1 (some centres unmarked) [compound 181]
360 nM | COc1ccc(C2CC3COCC32)cc1C(=O)N[C@H]1[C@@H](C(=O)Nc2ccc(F)c(C(F)(F)F)c2)[C@H]2CC[C@@H]1/C2=C\C1CC1 (stereo partly drawn) [Example 725, (1R,2S,3R,4R,Z)-3-(5-(3-oxabicyclo[3.2.0]heptan-6-yl)-2-methoxybenzamido)-7-(cyclopropylmethylene)-N-(4-fluoro-3-(trifluoromethyl)phenyl)bicyclo[2.2.1]heptane-2-carboxamide]
19 nM | COc1ccc(-c2cc(C(C)(C)O)on2)cc1C(=O)N[C@@H]1C2CCC(/C2=C/C2CC2)[C@@H]1C(=O)Nc1ccc(F)c(C(F)(F)F)c1 (some centres unmarked) [compound 425]
5.8 nM | COc1ccc(C2=NOC3COCC23)cc1C(=O)N[C@@H]1C2CCC(/C2=C/C2CC2)[C@@H]1C(=O)Nc1ccc(F)c(OC(F)(F)F)c1 (some centres unmarked) [compound 973]
2 nM | CONC(=O)OC(c1ccc(F)c(-c2ccc(OC)c(C(=O)N[C@@H]3C4CCC(/C4=C/C4CC4)[C@@H]3C(=O)Nc3ccc(F)c(C(F)(F)F)c3)c2)c1)C(F)(F)F (some centres unmarked) [compound 214]
8 nM | COc1ccc(C2=NOC(C(=O)O)C2)cc1C(=O)N[C@@H]1C2CCC(/C2=C/C2CC2)[C@@H]1C(=O)Nc1ccc(F)c(C(F)(F)F)c1 (single isomer, unassigned) [Example 385]
5 nM | COc1ccc(C2=NO[C@@H]3[C@@H](O)CCN23)cc1C(=O)N[C@H]1[C@@H](C(=O)Nc2ccc(F)c(C(F)(F)F)c2)[C@H]2CC[C@@H]1/C2=C\C1CC1 [compound 857]
575 nM | COc1ccc(-c2cc(C(=O)O)ccc2F)cc1C(=O)N[C@@H]1C2CCC(/C2=C/C2CC2)[C@@H]1C(=O)NC(C)C (some centres unmarked) [compound 300]
4.9 nM | COc1ccc(C2=NOC3COCC23)cc1C(=O)N[C@H]1[C@@H](C(=O)Nc2ccc(F)c(C(F)(F)F)c2)[C@H]2CC[C@@H]1/C2=C\c1csc(C)n1 (some centres unmarked) [compound 806]
1 nM | COc1ccc(-c2cc(C(OC(=O)NC34CC(C3)C4)C(F)(F)F)ccc2F)cc1C(=O)N[C@H]1[C@@H](C(=O)Nc2ccc(F)c(C(F)(F)F)c2)[C@H]2CC[C@@H]1/C2=C\C1CC1 (single isomer, unassigned) [Example 206]
10 nM | COc1ccc(C2CC3CN(C(=O)OC(C)(C)C)CC32)cc1C(=O)N[C@H]1[C@@H](C(=O)Nc2ccc(F)c(C(F)(F)F)c2)[C@H]2CC[C@@H]1/C2=C\C1CC1 (single isomer, unassigned) [compound 731]
2 nM | COc1ccc(-c2cc([C@H](OC(=O)NC3CCC3)C(F)(F)F)ccc2F)cc1C(=O)N[C@@H]1C2CCC(/C2=C/C2CC(F)(F)C2)[C@@H]1C(=O)Nc1ccc(F)c(C(F)(F)F)c1 (some centres unmarked) [compound 359]
